Measurements as given in US11890287B2, “Therapeutic compounds and compositions for treating social disorders and substance use disorders” (Kinoxis Therapeutics Pty Ltd, priority 2015, dated 2024).
Values joined by “and” are separate entries in the source; they are usually repeats but may differ in a detail not shown here. Identical values can stand only once.

Columns and labels:
rat hypothalamic neurons = test: Signalling in rat hypothalamic neurons; format: cell-based
rhesus monkeys = test: Intravenous cocaine self-administration; format: in vivo, rhesus monkey; details: 3 mg/kg orally
male Hooded Wistar rats = test: Social interaction test; format: in vivo, rat
Experimental: The primary phenotypic effect was a massive increase in a behaviour called “adjacent lying” where unfamiliar rats come together in passive social contact for prolonged periods. […] (n=6-8 pairs per condition, 20 minute test). Remarkably the effects of SOC-1 outlive its acute administration and a prolonged upregulation of social behaviour (measured as time spent in close proximity) in rats given only 3 doses of SOC-1, 2 weeks previously, was observed (FIG. 1, image (B)).

rats = test: In vivo toxicity/adverse events; design: species or system rat
Experimental: However, the rats were not ataxic or comatose, they were simply in a relaxed quiescent state. […] Effects on body temperature and other behaviours are not blocked by pre-treatment with the vasopressin V1A receptor antagonist SR49059 (10 mg/kg). […] The data in these two studies was gathered with DataSciences International biotelemetry system.

V2 = V2 (Homo sapiens, UniProt P30518); test: Orthosteric binding, AVP receptors
Sequence of V2 (P30518 whole entry): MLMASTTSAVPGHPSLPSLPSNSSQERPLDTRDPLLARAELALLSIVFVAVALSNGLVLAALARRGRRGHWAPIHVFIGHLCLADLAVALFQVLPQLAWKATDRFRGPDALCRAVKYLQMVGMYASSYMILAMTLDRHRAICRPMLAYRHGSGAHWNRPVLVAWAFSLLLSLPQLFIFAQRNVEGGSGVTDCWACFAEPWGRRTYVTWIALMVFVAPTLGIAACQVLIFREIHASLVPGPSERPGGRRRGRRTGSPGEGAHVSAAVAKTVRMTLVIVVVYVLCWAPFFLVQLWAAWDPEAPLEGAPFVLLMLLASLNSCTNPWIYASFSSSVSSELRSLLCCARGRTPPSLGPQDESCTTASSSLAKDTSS

[1] = Pharmacokinetics after IP and PO administration; format: in vivo, Hooded Wistar rats; details: for AUC(0-inf) / AUC(0-t) / Cmax / Tmax: Hooded Wistar, rat, plasma
Experimental: When given via an intraperitoneal injection (IP), SOC-1 plasma levels show a rapid elevation. This swiftly declines over the first hour before settling into a less hasty decrease in concentration over the proceeding hours. […] The initial increase in plasma levels is less pronounced when SOC-1 is given orally but the decline is far less rapid, with plasma concentration becoming equivalent to IP between 1 and 4 hours. In many ways this is a more favourable profile as, unlike the IP dosing, oral dosing results in levels of SOC-1 that are still high but that are also very stable over many hours, with a half-life of over four hours.

human V1a receptor = human V1a receptor (Homo sapiens, UniProt P37288); test: Orthosteric binding against [3H]AVP
Sequence of human V1a receptor (P37288 whole entry): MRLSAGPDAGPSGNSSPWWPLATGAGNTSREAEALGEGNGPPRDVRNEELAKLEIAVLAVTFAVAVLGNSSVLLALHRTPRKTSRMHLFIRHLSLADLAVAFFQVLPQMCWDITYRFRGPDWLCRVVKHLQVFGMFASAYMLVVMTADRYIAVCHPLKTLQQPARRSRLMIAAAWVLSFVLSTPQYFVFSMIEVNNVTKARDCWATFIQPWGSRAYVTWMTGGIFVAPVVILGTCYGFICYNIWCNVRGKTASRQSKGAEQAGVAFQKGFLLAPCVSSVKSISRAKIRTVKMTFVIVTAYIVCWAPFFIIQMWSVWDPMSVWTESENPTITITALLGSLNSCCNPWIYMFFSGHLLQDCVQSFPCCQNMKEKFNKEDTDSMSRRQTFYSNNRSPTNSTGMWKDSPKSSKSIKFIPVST

[2] = test system: SH-SY5Y neuroblastoma cells; test: Cell viability (Cell Titer Blue); format: cell-based; details: 48 hours; for Viability: mean ± SD
Experimental: (§1) No apparent cytotoxicity of SOC-1 has been seen in vitro or toxicity in vivo. In a test, SH-SY5Y neuroblastoma cells and HEK-293 cells (4×10^4 cells per well) were exposed to OT or SOC-1 (0.01-10 μM) for 48 hours, with daily media changes. Viability of cells was assessed after a 4 hour exposure to Cell Titer Blue (Promega).

HEK-293 cells = test: Cell viability (Cell Titer Blue); format: cell-based; details: 48 hours; for Viability: mean ± SD
Experimental: as §1

Sprague Dawley rats = test: Acute toxicity, single intravenous bolus dose of 50 mg/kg, one week dose range finding study; format: in vivo
Experimental: The acute toxicity of SOC-1 test items was assessed in Sprague Dawley rats following intravenous administration of a single bolus dose of 50 mg/kg. A total of n=3 adult female rats were treated and then observed for 7 days prior to termination on Study Day 8 without necropsy.
The design of this acute single dose toxicity study in rats was adapted from OECD Guideline for Testing of Chemicals No. 420 Acute Oral Toxicity—Fixed Dose Procedure’ 2001 (3) and the test facility Standard Operating Procedure SP_T002 ‘Dose Range Finding Study in Rodents’. The study procedures were conducted as outlined below and according to related test facility Standard Operating Procedures.
Briefly, on completion of the acclimation period the study was commenced with administration of the treatment on Study Day 1. […] Body weights were also collected daily. On Study Day 8 the surviving animals were culled without necropsy.
The 5 mg/mL test item treatments were administered as a bolus intravenous injection in a dose volume of 10 mL/kg on Study Day 1 with restraint on conscious animals.
Morbidity and mortality observations were recorded daily during the acclimation period and on Day 8, and twice daily from Day 1 through Day 7.
Clinical observations were conducted at least once during the acclimation period. Clinical observations were conducted at least once daily from Day 1 up to and including the day prior to termination. On the day of treatment the animals were monitored continuously for the first 30 minutes post-treatment with formal observations made at 30 minutes, 1 hour and 4 hours post-treatment.
The clinical observations included examination of animals for changes in skin and fur, eyes and mucous membranes, respiratory and circulatory function, gait and posture, behaviour, tremors or convulsions and any other abnormal findings.
The clinical observations also included daily examination of the tail for any injection site reaction (for example, erythema or oedema).
Body weight was recorded once during the acclimation period and daily from the time of treatment on Day 1 to Day 8.

Cl.Cn1ncc2c1Nc1ccccc1NC2 [SOC-1]
Ca^2+ levels (rat hypothalamic neurons): did not reliably alter Ca^2+ levels | IP1 levels (rat hypothalamic neurons): did not alter IP1 levels | basal cAMP (rat hypothalamic neurons): able to decrease basal cAMP | forskolin-stimulated cAMP (rat hypothalamic neurons): did not reliably decrease forskolin-stimulated cAMP | food consumption (rhesus monkeys): without affecting food consumption | intravenous cocaine self-administration relative to baseline levels (rhesus monkeys): nearly halved | adjacent lying in the social interaction test (male Hooded Wistar rats; 5 and 10 mg/kg IP, 20 minute test): massive increase in adjacent lying | pro-social effects compared with AVP, MDMA and WAY 267,464 (male Hooded Wistar rats; most efficacious doses, adjacent lying): most powerful pro-social effects by a considerable margin | proximity towards a novel conspecific (time spent within 1 body length) (male Hooded Wistar rats; two weeks following treatment, 3 doses in total across 6 days): increased proximity towards a novel conspecific relative to controls | locomotor activity (rats; 10-20 mg/kg IP): some mild inhibition of locomotor activity | tolerability of repeated dosing (body weight, coat condition) (rats; repeated dosing): without any apparent adverse effects | affinity for the orthosteric binding site of V2 (V2): Nor does SOC-1 show any affinity | AUC(0-inf) ([1]; ip, 5 mg/kg): 5910 ng·h/mL | AUC(0-t) ([1]; ip, 5 mg/kg): 5520 ng·h/mL | Cmax ([1]; ip, 5 mg/kg): 3840 ng/mL | Tmax ([1]; ip, 5 mg/kg): 3.96 min | AUC(0-inf) ([1]; po, 5 mg/kg): 8490 ng·h/mL | AUC(0-t) ([1]; po, 5 mg/kg): 4060 ng·h/mL | Cmax ([1]; po, 5 mg/kg): 1320 ng/mL | Tmax ([1]; po, 5 mg/kg): 26.1 min | ka ([1]; IP, 5 mg/kg): 71.727 h⁻¹ | ke ([1]; IP, 5 mg/kg): 0.679 h⁻¹ | t1/2ka ([1]; IP, 5 mg/kg): 0.5798 min | t1/2ke ([1]; IP, 5 mg/kg): 61.26 min | ka ([1]; PO, 5 mg/kg): 9.45 h⁻¹ | t1/2ka ([1]; PO, 5 mg/kg): 4.38 min | t1/2ke ([1]; PO, 5 mg/kg): 248.8 min | half-life ([1]; oral dosing): over four | oral bioavailability ([1]; relative to the intraperitoneal route): excellent oral bioavailability | IC50 (human V1a receptor): > 10 µM | Viability ([2]; 0.01 μM): 98.9 ± 2.7 percentage of vehicle viability | Viability ([2]; 0.1 μM): 99.1 ± 2.9 percentage of vehicle viability | Viability ([2]; 1 μM): 97.7 ± 1.6 percentage of vehicle viability | Viability ([2]; 10 μM): 97.0 ± 2.5 percentage of vehicle viability | differences in viability ([2]; 0.01-10 μM): No significant differences in viability | Viability (HEK-293 cells; 0.01 μM): 102.6 ± 2.1 percentage of vehicle viability | Viability (HEK-293 cells; 0.1 μM): 102.1 ± 3.2 percentage of vehicle viability | Viability (HEK-293 cells; 1 μM): 102.5 ± 3.6 percentage of vehicle viability | Viability (HEK-293 cells; 10 μM): 103.2 ± 1.2 percentage of vehicle viability | differences in viability (HEK-293 cells; 0.01-10 μM): No significant differences in viability | body weight findings (Sprague Dawley rats; 50 mg/kg IV): no body weight findings that were considered treatment related | clinical findings post-dose on Study Day 1 (Sprague Dawley rats; 50 mg/kg IV): mild piloerection and reduced activity levels | injection site reactions (Sprague Dawley rats; 50 mg/kg IV): no findings of injection site reactions | morbidity and mortality (Sprague Dawley rats; 50 mg/kg IV): no unscheduled deaths or findings of morbidity | time to resolution of clinical findings post-dose (Sprague Dawley rats; 50 mg/kg IV): ≤ 4 h | tolerability (Sprague Dawley rats; 50 mg/kg IV): tolerated | vocalisation and flinch reactions at the time of dosing (Sprague Dawley rats; 50 mg/kg IV in Hartman's solution): not associated with similar reactions | Body Weight, mean ± SD (Sprague Dawley rats; 50 mg/kg IV, Study Day 1): 224.30 ± 7.45 g | Body weight, individual rats (Sprague Dawley rats; 50 mg/kg IV, Study Day 1): 228.4 grams and 215.7 grams and 228.8 grams | Body Weight, mean ± SD (Sprague Dawley rats; 50 mg/kg IV, Study Day 2): 223.07 ± 4.37 g | Body weight, individual rats (Sprague Dawley rats; 50 mg/kg IV, Study Day 2): 220.9 grams and 220.2 grams and 228.1 grams | Body Weight, mean ± SD (Sprague Dawley rats; 50 mg/kg IV, Study Day 3): 226.87 ± 4.33 g | Body weight, individual rats (Sprague Dawley rats; 50 mg/kg IV, Study Day 3): 225.1 grams and 223.7 grams and 231.8 grams | Body Weight, mean ± SD (Sprague Dawley rats; 50 mg/kg IV, Study Day 4): 223.03 ± 5.34 g | Body weight, individual rats (Sprague Dawley rats; 50 mg/kg IV, Study Day 4): 229.2 grams and 220.1 grams and 219.8 grams | Body Weight, mean ± SD (Sprague Dawley rats; 50 mg/kg IV, Study Day 5): 222.77 ± 4.75 g | Body weight, individual rats (Sprague Dawley rats; 50 mg/kg IV, Study Day 5): 219.0 grams and 221.2 grams and 228.1 grams | Body Weight, mean ± SD (Sprague Dawley rats; 50 mg/kg IV, Study Day 6): 223.80 ± 3.70 g | Body weight, individual rats (Sprague Dawley rats; 50 mg/kg IV, Study Day 6): 220.7 grams and 222.8 grams and 227.9 grams | Body Weight, mean ± SD (Sprague Dawley rats; 50 mg/kg IV, Study Day 7): 226.60 ± 2.57 g | Body weight, individual rats (Sprague Dawley rats; 50 mg/kg IV, Study Day 7): 225.7 grams and 224.6 grams and 229.5 grams | Body Weight, mean ± SD (Sprague Dawley rats; 50 mg/kg IV, Study Day 8): 228.03 ± 3.81 g | Body weight, individual rats (Sprague Dawley rats; 50 mg/kg IV, Study Day 8): 229.1 grams and 223.8 grams and 231.2 grams | Hunched posture or gait- mild (incidence) (Sprague Dawley rats; 50 mg/kg IV, n 3): 1 | No abnormalities detected: (incidence) (Sprague Dawley rats; 50 mg/kg IV, n 3): 0 | Piloerection- mild (incidence) (Sprague Dawley rats; 50 mg/kg IV, n 3): 1 | Reduced activity (incidence) (Sprague Dawley rats; 50 mg/kg IV, n 3): 3
